Assay [1] has as its system Thoracic aorta. As to the kind of experiment: Vasorelaxant activity in rat thoracic aorta. The assay is classed as functional, tissue-based.
Assay [2] relates to Mesenteric artery. As to the kind of experiment: Vasorelaxant activity in Sprague-Dawley rat endothelium intact mesentric artery rings assessed as inhibition of KCl-induced contraction. The assay is classed as functional, tissue-based.
Assay [3] deals with Mesenteric artery. As to the kind of experiment: Vasorelaxant activity in endothelium intact mesentric artery rings isolated from streptozotocin-induced type-1 diabetic Sprague-Dawley rat model assessed as inhibition of phenylephrine-induced contraction in presence of eNOS inhibitor L-NAME. The format is functional, tissue-based.
The subject of assay [4] is Mesenteric artery. As to the kind of experiment: Vasorelaxant activity in Sprague-Dawley rat endothelium denuded mesentric artery rings assessed as inhibition of phenylephrine-induced contraction. The format is functional, tissue-based.
Assay [5] deals with Mesenteric artery. Description: Vasorelaxant activity in Sprague-Dawley rat endothelium intact mesentric artery rings assessed as inhibition of phenylephrine-induced contraction. The format is functional, tissue-based.
The subject of assay [6] is Thoracic aorta. Description: Potency index, ratio of rhynchophylline IC50 to compound IC50 for vasorelaxant activity in rat thoracic aorta. The format is functional.
Assay [7] relates to Mesenteric artery. Description: Vasorelaxant activity in mesentric artery rings isolated from Sprague-Dawley rat assessed as inhibition of phenylephrine-induced contraction in presence of eNOS inhibitor L-NAME. The format is functional, tissue-based.
For assay [8], the system named is Mesenteric artery. Description: Vasorelaxant activity in Sprague-Dawley rat endothelium denuded mesentric artery rings assessed as inhibition of KCl-induced contraction. The format is functional, tissue-based.
In assay [9] the test system is Mesenteric artery. Description: Vasorelaxant activity in Sprague-Dawley rat endothelium intact mesentric artery rings assessed as inhibition of phenylephrine-induced contraction in presence of non-selective calcium-activated K+ channel blocker TEA/VGCC blocker nifedipine. The format is functional, tissue-based.
The subject of assay [10] is Rattus norvegicus. As to the kind of experiment: In vivo vasorelaxant activity in streptozotocin-induced type-1 diabetic Sprague-Dawley rat model assessed as protection against eNOS loss in vessels by measuring increase in eNOS protein expression at 20 mg/kg, po via gavage for 1 week starting from 8 week post diabetic induction by Western blot method. The assay is classed as functional, organism-based. A general note: A western blot detects proteins with antibodies after separation by electrophoresis.

The test system of assay [11] is Rattus norvegicus. As to the kind of experiment: In vivo vasorelaxant activity in streptozotocin-induced type-1 diabetic Sprague-Dawley rat model assessed as inhibition of phenylephrine-induced contraction in mesentric artery rings at 20 mg/kg, po via gavage for 1 week starting from 8 week post diabetic induction. The format is functional, organism-based.
Assay [12] has as its system Rattus norvegicus. Description: In vivo vasorelaxant activity in streptozotocin-induced type-1 diabetic Sprague-Dawley rat model assessed as increase in acetylcholine-induced endothelium dependent relaxation in mesentric artery rings at 20 mg/kg, po via gavage for 1 week starting from 8 week post diabetic induction. The format is functional, organism-based.
Assay [13] deals with Rattus norvegicus. As to the kind of experiment: In vivo vasorelaxant activity in streptozotocin-induced type-1 diabetic Sprague-Dawley rat model assessed as protection against eNOS loss in vessels at 20 mg/kg, po via gavage for 1 week starting from 8 week post diabetic induction by […] based assay. The format is functional, organism-based.
The test system of assay [14] is Mesenteric artery. Description: Vasorelaxant activity in endothelium intact mesentric artery rings isolated from streptozotocin-induced type-1 diabetic Sprague-Dawley rat model assessed as inhibition of phenylephrine-induced contraction. The assay is classed as functional, tissue-based.

The source of these data is ChEMBL document CHEMBL4130410, “Novel rhynchophylline analogues as microvascular relaxation agents for the treatment of microvascular dysfunction caused by diabetes” (Eur J Med Chem, 2017).

Activity calls are given as the source filed them. The calls are words filed in the database; no cut-off is given here.

A word on the IC50: it is the point on the concentration scale where inhibition reaches its midpoint. With `CC[C@H]1CN2CC[C@]3(C(=O)Nc4ccccc43)[C@@H]2C[C@@H]1/C(=C/OC)C(=O)OC`, the IC50 in [1] stood at 174 µM.
As usually defined, the Emax is the greatest response seen or fitted, relative to the assay's reference. For the compound `COC(=O)C[C@@H]1C[C@H]2c3[nH]c4ccccc4c3CCN2C[C@@H]1CCO`, the inhibition entry in assay [2], in assay [3], in assay [7] and in [8] was “inactive” in each case. Moreover, the Emax in assay [4] was 86.3%; in [5], 99.1%. Also, the IC50 came out at 49.9 µM in [4], 7.79 µM in assay [5] and 3.69 µM in [1]. Moreover, in assay [5], the inhibition entry was “Dose-dependent effect”. In assay [6], the “Ratio IC50” value is reported as “<=30”. The inhibition result in [9] was “Active”.
In the case of `COC(=O)CC1CC2c3[nH]c4ccccc4c3CCN2CC1CCO` (racemic), the result in assay [10], in [12] and in [13] was Active. In addition, the inhibition result in assay [2], in assay [3], in [7] and in [8] was “inactive” throughout. Moreover, the Emax came out at 99.7% in [4] and 99.9% in assay [5]. The IC50 came out at 1.2 µM in assay [4], 0.499 µM in [5] and 5.89 µM in [1]. The inhibition result in assay [11], in assay [14] and in assay [9] was “Active” in each case. Moreover, the inhibition entry in assay [5] is “Dose-dependent effect”. Moreover, in [6], the “Ratio IC50” value is given as “<=30”.
On to `COC(=O)C[C@H]1C[C@@H]2c3[nH]c4ccccc4c3CCN2C[C@H]1CCO`, for which the inhibition entry in assay [2], in [3], in [7], in [8] and in [9] was “inactive” in each case. Moreover, the values for the Emax in assay [4] and in assay [5] were 101% and 100%, respectively. Also, the IC50 in assay [4] amounted to 5.15 µM; in assay [5] it was 0.092 µM; in assay [1], 0.199 µM. The inhibition entry in assay [5] is “Dose-dependent effect”. Also, the “Ratio IC50” value in [6] is listed as “<=30”. The inhibition result in assay [14] was “Active”.
